# Source: patent publication US20210352899A1, “COMPOSITIONS COMPRISING PYRIDINE CARBOXYLATE HERBICIDES AND FATTY ACID AND LIPID SYNTHESIS INHIBITOR HERBICIDES” (Corteva Agriscience LLC, priority 2018, published 2021)
# Columns and labels:
# Format in all cases: in vivo
# [1] = tested on: Brassica napus (spring rape); assay: Greenhouse postemergence herbicidal effect, BRSNN
# Source text: (§1) Seeds of the desired test plant species were planted in a 90:10% v/v (volume/volume) mixture of PRO-MIX® BX (Premier Tech Horticulture, Quakertown, Pa., USA) and PROFILE® GREENS GRADE™ (Profile Products LLC, Buffalo Grove, Ill., USA) planting mixture, which typically has a pH of 5.2 to 6.2 and an organic matter content of at least 50 percent, in plastic pots with a surface area of 103.2 square centimeters (cm^2). In some aspects, to help ensure good germination and healthy plants, a fungicide treatment and/or other chemical or physical treatment was applied. The plants were grown for 7-36 days (d) in a greenhouse with an approximate 14-hour (h) photoperiod which was maintained at about 23° C. during the day and 22° C. during the night. Nutrients and water were added on a regular basis and supplemental lighting was provided with overhead metal halide 1000-Watt lamps as necessary. The plants were employed for testing when they reached the second or third true leaf stage.
# (§2) Emulsifiable concentrates of each pyridine carboxylate herbicide (Compound A or Compound B) were prepared at 100 grams acid equivalent per liter (g ae/L). The emulsifiable concentrates also included a safener, cloquintocet-mexyl, at 120 grams active ingredient per liter (g ai/L). An aliquot of each emulsifiable concentrate was placed in a 25 mL glass vial and diluted with an aqueous mixture of 1.25% (v/v) ACTIROB® B esterified rapeseed oil (Bayer Crop Science, Research Triangle Park, N.C., USA) or MSO® Concentrate with LECI-TECH® methylated soybean oil (Loveland Products, Loveland, Colo., USA) to obtain concentrated stock solutions at the highest application rate for each herbicide, based upon a 12 milliliter (mL) application volume at a rate of 187 liters per hectare (L/ha). The concentrated stock solutions were further diluted with an aqueous mixture of 1.25% v/v ACTIROB® B or MSO® Concentrate with LECI-TECH® to obtain stock solutions at reduced application rates for each herbicide. Spray solutions of the herbicide combinations (Compound A or Compound B plus the FA/LSI herbicide) were prepared by adding weighed amounts or aliquots of the FA/LSI herbicide to the stock solutions of Compound A or Compound B to form 12-mL spray solutions in two-way combinations.
# (§3) The spray solutions were applied to the plant material with an overhead Mandel track sprayer equipped with 8002E nozzles calibrated to deliver 187 L/ha over an application area of 0.503 square meters (m^2) at a spray height of 18 inches (43 centimeters (cm)) above the average plant canopy. Control plants were sprayed in the same manner with the solvent blank. All pyridine carboxylate herbicide (component a) application rates are given as “g ae/ha” and all FA/LSI herbicide (component b) application rates are given as “g ai/ha.”
# (§4) The treated plants and control plants were placed in a greenhouse as described above and watered by sub-irrigation to prevent wash-off of the test compounds. After 20-22 d, the condition of the test plants as compared with that of the control plants was determined visually and scored on a scale of 0 to 100 percent where 0 corresponds to no injury and 100 corresponds to complete kill.
# [2] = tested on: Polygonum convolvulus (wild buckwheat); assay: Greenhouse postemergence herbicidal effect, POLCO
# Source text: as §1, §2, §3, §4
# [3] = tested on: Sinapis arvensis (wild mustard); assay: Greenhouse postemergence herbicidal effect, SINAR
# Source text: as §1, §2, §3, §4
# [4] = tested on: Salsola kali (Russian thistle); assay: Greenhouse postemergence herbicidal effect, SASKR
# Source text: as §1, §2, §3, §4
# Kochia scoparia (kochia) = assay: Greenhouse postemergence herbicidal effect, KCHSC
# Source text: as §1, §2, §3, §4
# [5] = tested on: Amaranthus retroflexus (pigweed); assay: Greenhouse postemergence herbicidal effect, AMARE
# Source text: as §1, §2, §3, §4
# [6] = tested on: Chenopodium album L. (common lambsquarters); assay: Greenhouse postemergence herbicidal effect, CHEAL
# Source text: as §1, §2, §3, §4
# [7] = tested on: Matricaria chamomilla (wild chamomile); assay: Greenhouse postemergence herbicidal effect, MATCH
# Source text: as §1, §2, §3, §4
# [8] = tested on: Triticum aestivum (spring wheat); assay: Greenhouse postemergence crop phytotoxicity, TRZAS
# Source text: as §1, §2, §3, §4
# [9] = tested on: Hordeum vulgare (spring barley); assay: Greenhouse postemergence crop phytotoxicity, HORVS
# Source text: as §1, §2, §3, §4
# [10] = tested on: Viola tricolor (wild pansy); assay: Greenhouse postemergence herbicidal effect, VIOTR
# Source text: as §1
# (§5) Emulsifiable concentrates of each pyridine carboxylate herbicide (Compound A or Compound B) were prepared at 100 grams acid equivalent per liter (g ae/L). The emulsifiable concentrates also included a safener, cloquintocet-mexyl, at 120 grams active ingredient per liter (g ai/L). […]
# as §4
# [11] = tested on: Stellaria media (chickweed); assay: Greenhouse postemergence herbicidal effect, STEME
# Source text: as §1, §5, §4
# [12] = tested on: Lolium multiflorum (Italian ryegrass); assay: Greenhouse postemergence herbicidal effect, LOLMU
# Source text: as §1, §5, §4
# [13] = tested on: Echinochloa crus-galli (barnyard grass); assay: Greenhouse postemergence herbicidal effect, ECHCG
# Source text: as §1, §5, §4
# [14] = tested on: Digitaria sanguinalis (large crabgrass); assay: Greenhouse postemergence herbicidal effect, DIGSA
# Source text: as §1, §5, §4
# [15] = tested on: Cirsium arvense (Canada thistle); assay: Greenhouse postemergence herbicidal effect, CIRAR
# Source text: as §1, §2, §3, §4
# [16] = tested on: Setaria faberi (giant foxtail); assay: Greenhouse postemergence herbicidal effect, SETFA
# Source text: as §1, §5, §4
# Glycine max (soybean) = assay: Greenhouse postemergence herbicidal effect, GLXMA
# Source text: as §1, §5, §4
# [17] = Compound A 0, Thiobencarb 1120 g/ha
# [18] = Compound A 7.5 g/ha, Benfuresate 0
# [19] = Compound A 7.5 g/ha, Esprocarb 0
# [20] = Compound A 7.5 g/ha, Prosulfocarb 0
# [21] = Compound A 7.5 g/ha, Thiobencarb 0
# [22] = Compound A 10 g/ha, Benfuresate 0
# [23] = Compound A 10 g/ha, Esprocarb 0
# [24] = Compound A 10 g/ha, Prosulfocarb 0
# [25] = Compound A 10 g/ha, Thiobencarb 0
# [26] = Compound A 0, Esprocarb 420 g/ha
# [27] = Compound A 0, Benfuresate 150 g/ha
# [28] = Compound A 0, Prosulfocarb 250 g/ha
smiles,measurement,setting,value
"CCN(CC)C(=O)SCc1ccc(Cl)cc1 [Thiobencarb, thiobencarb, reference compound]","% visual injury, Obs",[1]; [17],10%
same,"% visual injury, Obs",[2]; [17],0%
same,"% visual injury, Obs",[3]; [17],5%
same,"% visual injury, Obs",[4]; [17],0%
same,"% visual injury, Obs",Kochia scoparia (kochia); [17],0%
same,"% visual injury, Obs",[5]; [17],10%
same,"% visual injury, Obs",[6]; [17],0%
same,"% visual injury, Obs",[7]; [17],15%
"N#CCOC(=O)c1nc(-c2ccc3cc[nH]c3c2F)c(F)c(N)c1Cl [Compound A, cyanomethyl 4-amino-3-chloro-5-fluoro-6-(7-fluoro-1H-indol-6-yl)pyridine-2-carboxylate]","% visual injury, Obs",[1]; [18],55%
same,"% visual injury, Obs",[1]; [19],55%
same,"% visual injury, Obs",[1]; [20],73%
same,"% visual injury, Obs",[1]; [21],55%
same,"% visual injury, Obs",[1]; [22],60%
same,"% visual injury, Obs",[1]; [23],70%
same,"% visual injury, Obs",[1]; [24],83%
same,"% visual injury, Obs",[1]; [25],60%
same,"% visual injury, Obs",[2]; [18],70%
same,"% visual injury, Obs",[2]; [20],75%
same,"% visual injury, Obs",[2]; [21],70%
same,"% visual injury, Obs",[2]; [22],78%
same,"% visual injury, Obs",[2]; [24],70%
same,"% visual injury, Obs",[2]; [25],78%
same,"% visual injury, Obs",[3]; [18],88%
same,"% visual injury, Obs",[3]; [19],85%
same,"% visual injury, Obs",[3]; [21],88%
same,"% visual injury, Obs",[3]; [22],92%
same,"% visual injury, Obs",[3]; [23],90%
same,"% visual injury, Obs",[3]; [25],92%
same,"% visual injury, Obs",[4]; [18],45%
same,"% visual injury, Obs",[4]; [19],38%
same,"% visual injury, Obs",[4]; [21],45%
same,"% visual injury, Obs",[4]; [22],60%
same,"% visual injury, Obs",[4]; [23],63%
same,"% visual injury, Obs",[4]; [25],60%
same,"% visual injury, Obs",Kochia scoparia (kochia); [18],50%
same,"% visual injury, Obs",Kochia scoparia (kochia); [19],50%
same,"% visual injury, Obs",Kochia scoparia (kochia); [20],60%
same,"% visual injury, Obs",Kochia scoparia (kochia); [21],50%
same,"% visual injury, Obs",Kochia scoparia (kochia); [22],58%
same,"% visual injury, Obs",Kochia scoparia (kochia); [23],55%
same,"% visual injury, Obs",Kochia scoparia (kochia); [24],65%
same,"% visual injury, Obs",Kochia scoparia (kochia); [25],58%
same,"% visual injury, Obs",[5]; [18],100%
same,"% visual injury, Obs",[5]; [19],70%
same,"% visual injury, Obs",[5]; [21],100%
same,"% visual injury, Obs",[5]; [22],100%
same,"% visual injury, Obs",[5]; [23],98%
same,"% visual injury, Obs",[5]; [25],100%
same,"% visual injury, Obs",[6]; [18],70%
same,"% visual injury, Obs",[6]; [19],60%
same,"% visual injury, Obs",[6]; [20],97%
same,"% visual injury, Obs",[6]; [21],70%
same,"% visual injury, Obs",[6]; [22],83%
same,"% visual injury, Obs",[6]; [23],90%
same,"% visual injury, Obs",[6]; [24],93%
same,"% visual injury, Obs",[6]; [25],83%
same,"% visual injury, Obs",[7]; [18],13%
same,"% visual injury, Obs",[7]; [19],0%
same,"% visual injury, Obs",[7]; [21],13%
same,"% visual injury, Obs",[7]; [22],15%
same,"% visual injury, Obs",[7]; [23],33%
same,"% visual injury, Obs",[7]; [25],15%
same,"% visual injury, Obs",[8]; [18],0%
same,"% visual injury, Obs",[8]; [19],0%
same,"% visual injury, Obs",[8]; [21],0%
same,"% visual injury, Obs",[8]; [22],0%
same,"% visual injury, Obs",[8]; [23],0%
same,"% visual injury, Obs",[8]; [25],0%
same,"% visual injury, Obs",[9]; [18],8%
same,"% visual injury, Obs",[9]; [19],0%
same,"% visual injury, Obs",[9]; [21],8%
same,"% visual injury, Obs",[9]; [22],0%
same,"% visual injury, Obs",[9]; [23],0%
same,"% visual injury, Obs",[9]; [25],0%
same,"% visual injury, Obs",[10]; [20],10%
same,"% visual injury, Obs",[10]; [24],18%
same,"% visual injury, Obs",[11]; [20],100%
same,"% visual injury, Obs",[11]; [24],97%
same,"% visual injury, Obs",[12]; [20],0%
same,"% visual injury, Obs",[12]; [24],0%
same,"% visual injury, Obs",[13]; [20],73%
same,"% visual injury, Obs",[13]; [24],78%
same,"% visual injury, Obs",[14]; [20],45%
same,"% visual injury, Obs",[14]; [24],25%
same,"% visual injury, Obs",[15]; [19],10%
same,"% visual injury, Obs",[15]; [20],23%
same,"% visual injury, Obs",[15]; [23],23%
same,"% visual injury, Obs",[15]; [24],20%
same,"% visual injury, Obs",[16]; [20],70%
same,"% visual injury, Obs",[16]; [24],70%
same,"% visual injury, Obs",Glycine max (soybean); [20],93%
same,"% visual injury, Obs",Glycine max (soybean); [24],95%
"CCN(C(=O)SCc1ccccc1)C(C)C(C)C (stereo not drawn) [Esprocarb, esprocarb, reference compound]","% visual injury, Obs",[1]; [26],0%
same,"% visual injury, Obs",[3]; [26],0%
same,"% visual injury, Obs",[4]; [26],0%
same,"% visual injury, Obs",Kochia scoparia (kochia); [26],0%
same,"% visual injury, Obs",[5]; [26],15%
same,"% visual injury, Obs",[6]; [26],0%
same,"% visual injury, Obs",[7]; [26],5%
same,"% visual injury, Obs",[15]; [26],0%
"CCS(=O)(=O)Oc1ccc2c(c1)C(C)(C)CO2 [Benfuresate, benfuresate, reference compound]","% visual injury, Obs",[1]; [27],5%
same,"% visual injury, Obs",[2]; [27],0%
same,"% visual injury, Obs",[3]; [27],0%
same,"% visual injury, Obs",[4]; [27],0%
same,"% visual injury, Obs",Kochia scoparia (kochia); [27],0%
same,"% visual injury, Obs",[5]; [27],10%
same,"% visual injury, Obs",[6]; [27],0%
same,"% visual injury, Obs",[7]; [27],0%
"CCCN(CCC)C(=O)SCc1ccccc1 [Prosulfocarb, prosulfocarb, reference compound]","% visual injury, Obs",[1]; [28],0%
same,"% visual injury, Obs",[2]; [28],0%
same,"% visual injury, Obs",Kochia scoparia (kochia); [28],0%
same,"% visual injury, Obs",[6]; [28],0%
same,"% visual injury, Obs",[10]; [28],0%
same,"% visual injury, Obs",[11]; [28],0%
same,"% visual injury, Obs",[12]; [28],0%
same,"% visual injury, Obs",[13]; [28],0%
same,"% visual injury, Obs",[14]; [28],0%
same,"% visual injury, Obs",[15]; [28],0%
same,"% visual injury, Obs",[16]; [28],0%
same,"% visual injury, Obs",Glycine max (soybean); [28],0%
